Test results as given in ChEMBL document CHEMBL1137952, “Fertilin beta peptidic liposomes inhibit fertilization by steric blockage” (Bioorg Med Chem Lett, 2004).
Values belong to the compound of their own block, whether it stands above or below them. The source made the active and inactive calls. The calls are words filed in the database; no cut-off is given here. Non-standard residues stand in square brackets, D forms with d. Residues, ends and D or L forms follow the SMILES beside them. ξ: configuration not given here. *: point of attachment. Myristoyl = CCCCCCCCCCCCCC(=O)*; Dap = NC[C@H](N)C(=O)O; ξDap = NCC(N)C(=O)O; GABA = NCCCC(=O)O

Legend:
[1] = system: Liposome; assay: Inhibition of fertilization by fertilin beta peptide, measured by number of zona-free eggs fertilized (FR); format: functional, subcellular, Mus musculus
[2] = system: Liposome; assay: Maximal inhibition of fertilization by fertilin beta peptide; format: functional, subcellular; settings: Mus musculus
[3] = system: Liposome; assay: Inhibition of fertilization by fertilin beta peptide, measured by average number of sperm fused / egg (FI); format: functional, Mus musculus
[4] = system: Liposome; assay: Inhibition of fertilization by fertilin beta peptide (1 mol%) with 40 nm liposome, measured by number of zona-free eggs fertilized (FR); No inhibition uM peptide; format: functional, subcellular, Mus musculus
[5] = system: Liposome; assay: Maximal inhibition of fertilization by fertilin beta peptide (1 mol%) with 40 nm liposome; No inhibition; format: functional, subcellular; settings: Mus musculus
[6] = system: Liposome; assay: Inhibition of fertilization by fertilin beta peptide (1 mol%) with 40 nm liposome, measured by number of zona-free eggs fertilized (FR); No inhibition; format: functional, subcellular, Mus musculus
[7] = system: Liposome; assay: Inhibition of fertilization by fertilin beta peptide (1 mol%) with 40 nm liposome, measured by average number of sperm fused /egg (FI); No inhibition uM peptide; format: functional, subcellular, Mus musculus
[8] = system: Liposome; assay: Maximal inhibition of fertilization by fertilin beta peptide (0.5 mol%) with 40 nm liposome; format: functional, subcellular; settings: Mus musculus
[9] = system: Liposome; assay: Inhibition of fertilization by fertilin beta peptide (1 mol%) with 40 nm liposome, measured by average number of sperm fused per egg (FI); format: functional, subcellular, Mus musculus
[10] = system: Liposome; assay: Maximal inhibition of fertilization by fertilin beta peptide (1 mol%) with 40 nm liposome; format: functional, subcellular; settings: Mus musculus
[11] = system: Liposome; assay: Inhibition of fertilization by fertilin beta peptide (0.013 mol%) with 40 nm liposome, measured by number of zona-free eggs fertilized (FR); No inhibition up to 125 nm peptide; format: functional, Mus musculus
[12] = system: Liposome; assay: Inhibition of fertilization by fertilin beta peptide (0.013 mol%) with 40 nm liposome, measured by average number of sperm fused per egg (FI); No inhibition up to 125 nm peptide; format: functional, Mus musculus
[13] = system: Liposome; assay: Inhibition of fertilization by fertilin beta peptide (0.5 mol%) with 400 nm liposome, measured by average number of sperm fused per egg (FI); format: functional, subcellular, Mus musculus
[14] = system: Liposome; assay: Inhibition of fertilization by fertilin beta peptide (0.1 mol%) with 40 nm liposome, measured by number of zona-free eggs fertilized (FR); format: functional, subcellular, Mus musculus
[15] = system: Liposome; assay: Inhibition of fertilization by fertilin beta peptide (5 mol%) with 40 nm liposome, measured by average number of sperm fused per egg (FI); format: functional, subcellular, Mus musculus
[16] = system: Liposome; assay: Inhibition of fertilization by fertilin beta peptide (0.1 mol%) with 40 nm liposome, measured by average number of sperm fused per egg (FI); format: functional, subcellular, Mus musculus
[17] = system: Liposome; assay: Inhibition of fertilization by fertilin beta peptide (0.5 mol%) with 40 nm liposome, measured by number of zona-free eggs fertilized (FR); format: functional, subcellular, Mus musculus
[18] = system: Liposome; assay: Inhibition of fertilization by fertilin beta peptide (0.5 mol%) with 40 nm liposome, measured by average number of sperm fused per egg (FI); format: functional, subcellular, Mus musculus
[19] = system: Liposome; assay: Inhibition of fertilization by fertilin beta peptide (0.5 mol%) with 400 nm liposome, measured by number of zona-free eggs fertilized (FR); format: functional, subcellular, Mus musculus
[20] = system: Liposome; assay: Inhibition of fertilization by fertilin beta peptide (0.013 mol%) with 40 nm liposome, measured by number of zona-free eggs fertilized (FR); No inhibition; format: functional, subcellular, Mus musculus
[21] = system: Liposome; assay: Inhibition of fertilization by fertilin beta peptide (5 mol%) with 40 nm liposome, measured by number of zona-free eggs fertilized (FR); format: functional, subcellular, Mus musculus
[22] = system: Liposome; assay: Inhibition of fertilization by fertilin beta peptide (1 mol%) with 40 nm liposome, measured by number of zona-free eggs fertilized (FR); format: functional, subcellular, Mus musculus
[23] = system: Liposome; assay: Maximal inhibition of fertilization by POPC (40 or 400 nm); No inhibition; format: functional; settings: Mus musculus
[24] = system: Liposome; assay: Inhibition of fertilization by POPC (40 or 400 nm), measured by number of zona-free eggs fertilized (FR); No inhibition; format: functional, subcellular, Mus musculus
[25] = system: Liposome; assay: Inhibition of fertilization by POPC (40 or 400 nm), measured by number of zona-free eggs fertilized (FR); No inhibition uM; format: functional, subcellular, Mus musculus
[26] = system: Liposome; assay: Inhibition of fertilization by POPC (40 or 400 nm), measured by average number of sperm fused / egg (FI); No inhibition uM; format: functional, Mus musculus

IC50 [1]: 500 µM | IC50 [3]: 524 µM
Structure (SMILES): CC(=O)NC[C@H](NC(C)=O)C(=O)NCCCC(=O)N[C@@H](C)C(=O)N[C@@H](CCC(N)=O)C(=O)N[C@@H](CC(=O)O)C(=O)N[C@@H](CCC(=O)O)C(=O)N[C@@H](CS)C(=O)N[C@@H](CC(=O)O)C(=O)N[C@H](C(=O)N[C@H](C(=O)N[C@@H](CCC(=O)O)C(=O)N[C@@H](Cc1ccc(O)cc1)C(N)=O)[C@@H](C)O)C(C)C (Ac-[Dap](Ac)[GABA]AQDECDVTEY-NH2)
Max inhibition [2]: 71%

IC50 [4]: Not Active | IC50 [6]: Not Active | IC50 [7]: Not Active
Structure (SMILES): CCCCCCCCCCCCCC(=O)NCC(NC(=O)CCCCCCCCCCCCC)C(=O)NCCCC(=O)N[C@@H](CC(=O)O)C(=O)N[C@@H](Cc1ccc(O)cc1)C(=O)N[C@@H](CCC(=O)O)C(=O)N[C@H](C(=O)N[C@@H](CCC(=O)O)C(=O)N[C@@H](CCC(N)=O)C(=O)N[C@@H](C)C(=O)N[C@@H](CS)C(=O)N[C@H](C(=O)N[C@@H](CC(N)=O)C(=O)O)[C@@H](C)O)C(C)C (stereo not given in full) (Myristoyl-[ξDap](Myristoyl)[GABA]DYEVEQACTN-OH)
Max inhibition [5]: inactive

IC50 [9]: 2.4 µM | IC50 [11]: Not Active | IC50 [12]: Not Active | IC50 [13]: 0.92 µM | IC50 [14]: 0.5 µM | IC50 [15]: 5 µM | IC50 [16]: 0.5 µM | IC50 [17]: 2800000000000 liposomes ml-1 | IC50 ([17]; read-out: IC50): 0.34 µM | IC50 [18]: 0.5 µM | IC50 [19]: 59000000000 liposomes ml-1 | IC50 ([19]; read-out: IC50): 0.75 µM | IC50 [20]: Not Active | IC50 [21]: 4200000000000 liposomes ml-1 | IC50 ([21]; read-out: IC50): 5 µM | IC50 [22]: 11000000000000 liposomes ml-1 | IC50 ([22]; read-out: IC50): 2.5 µM
Structure (SMILES): CCCCCCCCCCCCCC(=O)NCC(NC(=O)CCCCCCCCCCCCC)C(=O)NCCCC(=O)N[C@@H](C)C(=O)N[C@@H](CCC(N)=O)C(=O)N[C@@H](CC(=O)O)C(=O)N[C@@H](CCC(=O)O)C(=O)N[C@@H](CS)C(=O)N[C@@H](CC(=O)O)C(=O)N[C@H](C(=O)N[C@H](C(=O)N[C@@H](CCC(=O)O)C(=O)N[C@@H](Cc1ccc(O)cc1)C(N)=O)[C@@H](C)O)C(C)C (stereo not given in full) (Myristoyl-[ξDap](Myristoyl)[GABA]AQDECDVTEY-NH2)
Max inhibition [8]: 93% | Max inhibition [10]: 97%

IC50 [24]: Not Active | IC50 [25]: Not Active | IC50 [26]: Not Active
Structure (SMILES): CCCCCCCC/C=C\CCCCCCCC(=O)OC(COC(=O)CCCCCCCCCCCCCCC)COP(=O)([O-])OCC[N+](C)(C)C (stereo not given)
Max inhibition [23]: inactive
